According to the CheMixHub ionic liquid set:

Assay: xn = mol fraction of the nth substance listed

CC[n+]1ccccc1.[Cl-] + CCCC[n+]1ccccc1.[Cl-]
101 kPa
Details | viscosity [mPa·s]
388.1 K, x1 = 0.804 | 23.2
393.1 K, x1 = 0.504 | 27.4
393.1 K, x1 = 0.804 | 19.8
398.1 K, x1 = 0.504 | 23.4
398.1 K, x1 = 0.702 | 18.5
398.1 K, x1 = 0.804 | 17
403.1 K, x1 = 0.804 | 14.67
408.1 K, x1 = 0.198 | 22.8
413.1 K, x1 = 0.198 | 19.7
413.1 K, x1 = 0.795 | 11.06
418.1 K, x1 = 0.504 | 13.42
423.1 K, x1 = 0.388 | 12.25
428.1 K, x1 = 0.702 | 8.33
428.1 K, x1 = 0.795 | 7.76
433.1 K, x1 = 0.597 | 8.38
438.1 K, x1 = 0.302 | 9.51
438.1 K, x1 = 0.702 | 6.8
443.1 K, x1 = 0.504 | 8.1
443.1 K, x1 = 0.804 | 6.06

CCCCCCCCCCCCCC[P+](CCCCCC)(CCCCCC)CCCCCC.[c-]1nc[nH]n1 + CCCCCC[n+]1ccn(C)c1.O=S(=O)([N-]S(=O)(=O)C(F)(F)F)C(F)(F)F
viscosity [mPa·s], 100 kPa
Details | 278.15 K | 283.15 K | 288.15 K | 293.15 K | 298.15 K | 303.15 K | 308.15 K | 313.15 K | 318.15 K | 323.15 K
x2 = 0.1 | 5162 | 3302 | 2162 | 1458 | 1013 | 720 | 524 | 389 | 296 | 229
x2 = 0.195 | 4777 | 3062 | 2000 | 1349 | 930 | 664 | 484 | 359 | 273 | 211
x2 = 0.282 | 4094 | 2612 | 1719 | 1162 | 810 | 579 | 422 | 314 | 239 | 185
x2 = 0.378 | 3093 | 1992 | 1317 | 900 | 633 | 456 | 337 | 253 | 194 | 152
x2 = 0.493 | 2209 | 1445 | 970 | 677 | 485 | 355 | 267 | 204 | 159 | 127
x2 = 0.6 | 1397 | 940 | 641 | 452 | 329 | 245 | 186 | 145 | 115 | 93
x2 = 0.693 | 910 | 619 | 431 | 308 | 227 | 171 | 132 | 104 | 83 | 67
x2 = 0.792 | 612 | 424 | 301 | 220 | 165 | 127 | 99 | 79 | 64 | 53
x2 = 0.893 | 325 | 235 | 174 | 132 | 103 | 81 | 65 | 54 | – | –

CCCC[n+]1ccn(C)c1.[I-] + CCO
298.15 K, 100 kPa
Details | electrical conductivity [S/m]
x1 = 0.009029 | 0.254
x1 = 0.1006 | 1.47
x1 = 0.2076 | 1.74

CC[n+]1ccn(C)c1.F[B-](F)(F)F + C1COCCO1
100 kPa
Details | viscosity [mPa·s]
293.15 K, x2 = 0 | 50.5
298.15 K, x2 = 0.2149 | 26.8
303.15 K, x2 = 0 | 34.5
303.15 K, x2 = 0.1664 | 25.1
303.15 K, x2 = 0.2149 | 22.7
303.15 K, x2 = 0.5453 | 9.3
313.15 K, x2 = 0.2149 | 16.9
323.15 K, x2 = 0 | 18.6
323.15 K, x2 = 0.5077 | 6.59
323.15 K, x2 = 0.5453 | 5.93
333.15 K, x2 = 0.3591 | 7.8
333.15 K, x2 = 0.5077 | 5.42
353.15 K, x2 = 0.5453 | 3.52
